Here are results for eight molecules from paper PMC6060383, “Synthesis and pharmacological evaluation of novel isoquinoline N-sulphonylhydrazones designed as ROCK inhibitors” (Journal of Enzyme Inhibition and Medicinal Chemistry, 2018).

In brackets after ≈: the same amount, converted by molar mass. Some results are limits rather than exact numbers.

Broadly, the inhibition is the drop in the measured response relative to a control, in per cent. Broadly, the solubility is the concentration that dissolves in the medium under given conditions. A lower solubility goes with little dissolved substance. Usually melting point stands for the temperature of the solid-liquid transition. By IC50 is commonly meant the point on the concentration scale where inhibition reaches its midpoint.

Data set [1] concerns the target T1, ROCK1 human recombinant enzyme (Homo sapiens, UniProt Q13464).
T1 construct: purchased EUROFINS-CEREP France (contract assay, study numbers 100033685 and 100040481); host or cells: Sf9 insect cells
As to the kind of experiment: ROCK1 inhibition assay (Eurofins-Cerep, phosphorylation of Ulight-RRRSLLE substrate). Format: biochemical. The conditions noted are these: for inhibition at 3 µM: screening concentration 3 μM, average of two experiments. The protocol:
(§1) The analysis was performed using software developed at Cerep (Hill software) and GraphPad Prism® 5.0 (GraphPad Software, Inc., San Diego, CA) and validated through comparison with results generated using the SigmaPlot 4.0 software.
(§2) Prior to this assay, we evaluated the solubility of these compounds in water (buffer pH 7.4) to ensure that the inhibition percentages were not influenced by the precipitation of the compounds under test conditions.

Data set [2] concerns the target T2, ROCK2 human recombinant enzyme (Homo sapiens, UniProt O75116).
T2 construct: purchased EUROFINS-CEREP France (contract assay, study numbers 100033685 and 100040481); host or cells: Sf21 insect cells
The experiment in a line: ROCK2 inhibition assay (Eurofins-Cerep, phosphorylation of Ulight-RRRSLLE substrate). Format: biochemical. The following applies: for inhibition at 3 µM: screening concentration 3 μM, average of two experiments. The protocol:
as §1, §2

A short description of data set [3]: Water solubility assay (UV spectrophotometric method). The conditions noted are these: aqueous buffer, thermodynamic from solid, water (buffer pH 7.4), stirring 4 h at 37 °C. The format is physicochemical. The protocol:
The solubility assay was performed considering the absorptivity of compounds under ultraviolet spectroscopy as described by Schneider et al.[20] Assay wavelength was determined through λmax characteristic of each compound. Saturated aqueous solutions were prepared (0.8–1.0 mg/mL) and kept under stirring for 4 h at 37 °C. The supernatant was filtered in […] filters and transferred to a quartz cuvette (10 mm) for spectra acquisition. Solubility was determined by linear regression used as Excel graph plots, solutions were prepared by dilutions of the original solution in methanol. Data were collected in triplicate and the mean values were used to create the graph plots. The correlation coefficient (R^2) values were between 0.9982 and 1.
The N-sulphonylhydrazone derivatives 5a–h were evaluated for their ability to inhibit both ROCK1 and ROCK2 isoforms by measuring the phosphorylation of the Ulight-RRRSLLE substrate using human recombinant enzymes expressed in Sf9[23] and Sf21^24 cells, respectively. Prior to this assay, we evaluated the solubility of these compounds in water (buffer pH 7.4) to ensure that the inhibition percentages were not influenced by the precipitation of the compounds under test conditions. The enzymatic assay was initially performed at a screening concentration of 3 μM, which is capable of guaranteeing the solubility of most of the compounds, and the obtained results are shown in Table 2.

Setting [4] is: ROCK inhibition assays, 1 to 50 µM.

T1 sequence (Q13464 whole entry): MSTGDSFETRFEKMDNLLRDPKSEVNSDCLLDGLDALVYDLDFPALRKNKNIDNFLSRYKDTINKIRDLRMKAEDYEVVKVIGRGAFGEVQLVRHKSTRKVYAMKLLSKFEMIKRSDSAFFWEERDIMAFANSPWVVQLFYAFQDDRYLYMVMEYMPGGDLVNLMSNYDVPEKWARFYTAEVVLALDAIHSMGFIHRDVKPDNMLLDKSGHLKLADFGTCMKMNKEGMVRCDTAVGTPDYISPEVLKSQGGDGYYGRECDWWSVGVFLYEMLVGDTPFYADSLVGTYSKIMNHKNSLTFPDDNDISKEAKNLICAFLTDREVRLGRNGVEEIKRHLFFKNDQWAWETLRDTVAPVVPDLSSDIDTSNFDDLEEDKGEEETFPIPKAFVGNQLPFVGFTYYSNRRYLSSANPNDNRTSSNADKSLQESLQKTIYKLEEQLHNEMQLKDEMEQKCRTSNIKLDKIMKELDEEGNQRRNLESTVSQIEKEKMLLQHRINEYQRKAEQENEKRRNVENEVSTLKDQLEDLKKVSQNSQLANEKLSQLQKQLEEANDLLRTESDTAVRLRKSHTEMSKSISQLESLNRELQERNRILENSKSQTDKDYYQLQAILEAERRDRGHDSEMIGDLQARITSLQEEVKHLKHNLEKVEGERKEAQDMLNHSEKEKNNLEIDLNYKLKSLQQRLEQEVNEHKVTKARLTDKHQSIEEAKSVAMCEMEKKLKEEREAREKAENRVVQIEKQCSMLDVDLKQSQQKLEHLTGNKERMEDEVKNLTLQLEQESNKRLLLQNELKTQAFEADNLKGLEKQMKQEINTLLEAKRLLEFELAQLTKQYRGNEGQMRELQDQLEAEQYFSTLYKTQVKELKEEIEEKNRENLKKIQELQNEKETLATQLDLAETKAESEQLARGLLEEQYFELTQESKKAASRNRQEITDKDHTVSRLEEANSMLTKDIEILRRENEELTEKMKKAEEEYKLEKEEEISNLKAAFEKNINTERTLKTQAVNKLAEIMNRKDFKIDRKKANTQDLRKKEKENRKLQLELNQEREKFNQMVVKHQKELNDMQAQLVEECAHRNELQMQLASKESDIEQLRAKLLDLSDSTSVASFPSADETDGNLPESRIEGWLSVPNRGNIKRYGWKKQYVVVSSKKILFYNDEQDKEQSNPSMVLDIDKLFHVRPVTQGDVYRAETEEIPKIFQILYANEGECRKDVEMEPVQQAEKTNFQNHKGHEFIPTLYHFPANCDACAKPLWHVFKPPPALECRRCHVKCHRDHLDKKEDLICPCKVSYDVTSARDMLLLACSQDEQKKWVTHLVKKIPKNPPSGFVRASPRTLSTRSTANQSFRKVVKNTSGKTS
T2 sequence (O75116 1-543 limits assumed): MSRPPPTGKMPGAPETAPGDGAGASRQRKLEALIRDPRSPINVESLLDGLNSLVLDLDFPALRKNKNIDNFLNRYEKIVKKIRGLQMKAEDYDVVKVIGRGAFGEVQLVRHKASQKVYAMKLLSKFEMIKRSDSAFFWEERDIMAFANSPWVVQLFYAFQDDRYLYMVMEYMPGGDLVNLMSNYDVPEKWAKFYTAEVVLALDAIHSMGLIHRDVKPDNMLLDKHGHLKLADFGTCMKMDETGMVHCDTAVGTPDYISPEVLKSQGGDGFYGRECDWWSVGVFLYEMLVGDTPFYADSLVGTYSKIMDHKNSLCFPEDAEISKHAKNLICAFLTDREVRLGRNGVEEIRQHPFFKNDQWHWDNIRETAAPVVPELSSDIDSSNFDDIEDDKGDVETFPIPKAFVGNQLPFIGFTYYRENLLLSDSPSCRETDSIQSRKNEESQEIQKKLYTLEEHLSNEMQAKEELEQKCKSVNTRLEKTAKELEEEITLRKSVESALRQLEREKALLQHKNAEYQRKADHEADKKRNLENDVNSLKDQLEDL

Molecule `CN(C)c1ccc(/C=N/NS(=O)(=O)c2cccc3cnccc23)cc1` [Compound 5a, (E)-N′-(4-(dimethylamino)benzylidene)isoquinoline-5-sulphonohydrazide] returned a melting point of 165 °C. In addition, the inhibition at 3 µM in data set [1] turned out to be 4.1%. The inhibition at 3 µM in data set [2] turned out to be 0.6%. In data set [3], this molecule displayed a solubility at 4 h of 5.4 µM (≈ 1.91 µg/mL).

`O=[N+]([O-])c1ccc(/C=N/NS(=O)(=O)c2cccc3cnccc23)cc1` [Compound 5c, (E)-N′-(4-nitrobenzylidene)isoquinoline-5-sulphonohydrazide] registered a melting point of 168 °C. Moreover, the inhibition at 3 µM in data set [1] was determined as 1.1%. Also, the inhibition at 3 µM in data set [2] was found to be 8.1%. The molecule further gave a solubility at 4 h in data set [3] of 26 µM (≈ 9.27 µg/mL).

Take `O=S(=O)(N/N=C/c1cccnc1)c1cccc2cnccc12` [Compound 5d, (E)-N′-(pyridin-3-ylmethylene)isoquinoline-5-sulphonohydrazide]: the melting point was found to be 168 °C. Also, in data set [1], the inhibition at 3 µM was determined as 4.5%. Moreover, the inhibition at 3 µM in data set [2] is 7.6%. For the same molecule, in data set [3], the solubility at 4 h was over 64 µM.

In turn, `CC(=O)Nc1ccc(/C=N/NS(=O)(=O)c2cccc3cnccc23)cc1` [Compound 5e, (E)-N-(4-((2-(isoquinolin-5-ylsulphonyl)hydrazono)methyl)phenyl)acetamide] displayed a melting point of 173 °C. The inhibition at 3 µM in data set [1] worked out at 4.6%. Also, the inhibition at 3 µM in data set [2] is -9.1%. Moreover, in data set [3], the solubility at 4 h came out at 4.3 µM (≈ 1.58 µg/mL).

`O=S(=O)(N/N=C/c1ccc(B(O)O)cc1)c1cccc2cnccc12` [Compound 5f, (E)-(4-((2-(isoquinolin-5-ylsulphonyl)hydrazono)methyl)phenyl)boronic acid] yielded a melting point of over 250 °C. Also, in data set [1], the inhibition at 3 µM came to 2.7%. Also, in data set [2], the inhibition at 3 µM amounted to 7.3%. This molecule returned a solubility at 4 h in data set [3] of 58 µM (≈ 20.6 µg/mL).

As for `O=S(=O)(N/N=C/c1ccc(-c2ccccc2)cc1)c1cccc2cnccc12` [Compound 5g, (E)-N′-([1,1'-biphenyl]-4-ylmethylene)isoquinoline-5-sulphonohydrazide], the melting point stood at 166 °C. Also, the inhibition at 3 µM in data set [1] is -1.1%. Besides, in data set [2], the inhibition at 3 µM was 2.4%. The same molecule yielded a solubility at 4 h in data set [3] of under 0.5 µM.

Molecule `Cl.O=S(=O)(N/N=C/C1CCNCC1)c1cccc2cnccc12` [Compound 5h, (E)-N′-(piperidin-4-ylmethylene)isoquinoline-5-sulphonohydrazide hydrochloride] displayed a melting point of 186 °C. Further, in data set [1], the inhibition at 3 µM was determined as 6.9%. Moreover, in data set [2], the inhibition at 3 µM was determined as 3.9%. Moreover, in data set [3], the solubility at 4 h is over 84.5 µM.

In the case of `O=C(N/N=C/c1ccccc1)c1cccc2cnccc12` [Compound 10, (E)-N′-benzylidene isoquinoline-5-carbohydrazide], the “ROCK1 inhibition (result in words)” value in data set [1] (setting [4]) was “completely inactive”. Further, the IC50 is over 50 µM in data set [1] (human recombinant ROCK1, five-point assay, 1 to 50 µM, mean of two experiments) and over 50 µM in data set [2] (human recombinant ROCK2, five-point assay, 1 to 50 µM, mean of two experiments). Moreover, in data set [2] (setting [4]), the “ROCK2 inhibition (result in words)” value is “completely inactive”.
